# Assay results as given in ChEMBL document CHEMBL1828590 (J Med Chem, 2011).
# Activity calls are given as the source filed them. The rule behind the calls is not given here.
# How the values were obtained:
# Mus musculus [1] = assay: Toxicity in po dosed athymic nu/nu Harlan mouse with xenografted human HCT116 cells assessed as treatment-related mortality at 200 mg/kg,; format: organism-based, HCT-116; parameters: dose 200 mg/kg, route oral; conditions: in vivo
# [2] = Time required for attaining concentration above IC50 of HDAC1 in tumor of nude BALB/c mouse xenografted with HCT116 cells at 50 mg/kg, po administered as single dose; format: ADME, organism-based, Neoplasm, HCT-116; parameters: dose 50 mg/kg, route oral; conditions: in vivo
# [3] = Volume of distribution at steady state in Wistar rat at 2 mg/kg, iv; format: ADME, organism-based; parameters: dose 2 mg/kg, route intravenous; conditions: in vivo, read-out: Vdss
# Ramos [4] = assay: Antiproliferative activity against human Ramos cells; format: functional, cell-based
# Mus musculus [5] = assay: Toxicity in nude BALB/c mouse xenografted with human MV4-11 cells assessed as maximum body weight loss at 50 mg/kg, po QD for 21 days measured on day 19; format: organism-based; parameters: dose 50 mg/kg, route oral; conditions: in vivo, 504 h
# Mus musculus [6] = assay: Toxicity in nude BALB/c mouse xenografted with human HCT116 cells assessed as body weight loss at 100 mg/kg, po QD for 21 days measured on day 20; format: organism-based, HCT-116; parameters: dose 100 mg/kg, route oral; conditions: in vivo, 504 h
# [7] = Time required for attaining concentration above IC50 of HCT116 in tumor of nude BALB/c mouse xenografted with HCT116 cells at 100 mg/kg, po administered as single dose; format: ADME, organism-based, Neoplasm, HCT-116; parameters: dose 100 mg/kg, route oral; conditions: in vivo
# [8] = Cmax in nude BALB/c mouse at 50 mg/kg, po; format: ADME, organism-based; parameters: dose 50 mg/kg, route oral; conditions: in vivo
# [9] = Apparent oral clearance in Wistar rat at 2 mg/kg, iv; format: ADME, organism-based; parameters: dose 2 mg/kg; conditions: in vivo
# Mus musculus [10] = assay: Toxicity in nude BALB/c mouse xenografted with human HCT116 cells assessed as body weight loss at 100 mg/kg, po QD for 21 days measured on day 19; format: organism-based, HCT-116; parameters: dose 100 mg/kg, route oral; conditions: in vivo, 504 h
# [11] = Half life in human liver microsomes; format: ADME, Microsome
# HCT-116 [12] = assay: Antitumor activity against human HCT116 cells xenografted in nude BALB/c mouse assessed as tumor growth inhibition at 100 mg/kg, po qd for 21 days measured on day 15 measured on day 15; format: functional; conditions: read-out: TGI
# Mus musculus [13] = assay: Toxicity in nude BALB/c mouse xenografted with human HCT116 cells assessed as body weight loss at 50 mg/kg, po QD for 21 days measured on day 17; format: organism-based, HCT-116; parameters: dose 50 mg/kg, route oral; conditions: in vivo, 504 h
# [14] = Tmax in Beagle dog at 10 mg/kg, po; format: ADME, organism-based, Canis lupus familiaris; parameters: dose 10 mg/kg, route oral; conditions: in vivo
# [15] = Plasma protein binding in dog at 1000 ng/mL; format: ADME, cell-free, Canis lupus familiaris; conditions: read-out: PPB (converted)
# [16] = AUC (0 to infinity) in Wistar rat at 2 mg/kg, iv; format: ADME, organism-based; parameters: time infinity, dose 2 mg/kg, route intravenous; conditions: plasma
# [17] = target: Matrix metalloproteinase-9 (Homo sapiens) (UniProt P14780); assay: Inhibition of MMP9 at 10 uM
# [18] = Solubility of the compound in water at pH 2.2; format: physicochemical
# [19] = Plasma protein binding in human at 1000 ng/mL; format: ADME, cell-free; conditions: read-out: PPB (converted)
# [20] = Terminal half life in nude BALB/c mouse at 10 mg/kg, iv; format: ADME, organism-based; parameters: dose 10 mg/kg, route intravenous; conditions: in vivo, read-out: beta t1/2 (converted)
# [21] = Volume of distribution at steady state in nude BALB/c mouse at 10 mg/kg, iv; format: ADME, organism-based; parameters: dose 10 mg/kg, route intravenous; conditions: in vivo, read-out: Vdss
# [22] = Cmax in Beagle dog at 10 mg/kg, po; format: ADME, organism-based, Canis lupus familiaris; parameters: dose 10 mg/kg, route oral; conditions: in vivo
# Mus musculus [23] = assay: Toxicity in nude BALB/c mouse xenografted with human A2780 cells assessed as mortality at 100 mg/kg, po QD for 21 days measured on day 9; format: organism-based; parameters: dose 100 mg/kg, route oral; conditions: in vivo, 504 h
# [24] = AUC (0 to infinity) in nude BALB/c mouse at 10 mg/kg, iv; format: ADME, organism-based; parameters: time infinity, dose 10 mg/kg, route intravenous; conditions: plasma
# [25] = Solubility of the compound in phosphate buffer at pH 4.5; format: physicochemical
# [26] = Terminal half life in Beagle dog at 10 mg/kg, po; format: ADME, organism-based, Canis lupus familiaris; parameters: dose 10 mg/kg, route oral; conditions: in vivo, read-out: beta t1/2 (converted)
# Mus musculus [27] = assay: Toxicity in nude BALB/c mouse xenografted with human PC3 cells assessed as maximum body weight loss at 50 mg/kg, po QD for 21 days measured on day 17; format: organism-based, PC-3; parameters: dose 50 mg/kg, route oral; conditions: in vivo, 504 h
# MV4-11 [28] = assay: Antiproliferative activity against human MV4-11 cells; format: functional, cell-based
# Mus musculus [29] = assay: Toxicity in nude BALB/c mouse xenografted with human HCT116 cells assessed as mouse survival at 200 mg/kg, po QD for 21 days measured on day 22; format: organism-based, HCT-116; parameters: dose 200 mg/kg, route oral; conditions: in vivo, 504 h
# PC-3 = assay: Antitumor activity against human PC3 cells xenografted in nude BALB/c mouse assessed as tumor growth inhibition at 50 mg/kg, po qd for 21 days measured on day 22; format: functional; conditions: read-out: TGI
# [30] = Solubility of the compound in 0.9% NaCl; format: physicochemical
# [31] = Apparent oral clearance in Beagle dog at 2 mg/kg, iv; format: ADME, organism-based, Canis lupus familiaris; parameters: dose 2 mg/kg; conditions: in vivo
# [32] = Tmax in nude BALB/c mouse at 50 mg/kg, po; format: ADME, organism-based; parameters: dose 50 mg/kg, route oral; conditions: in vivo
# [33] = Volume of distribution at steady state in Beagle dog at 2 mg/kg, iv; format: ADME, organism-based, Canis lupus familiaris; parameters: dose 2 mg/kg, route intravenous; conditions: in vivo, read-out: Vdss
# Mus musculus [34] = assay: Toxicity in nude BALB/c mouse xenografted with human MV4-11 cells assessed as maximum body weight loss at 25 mg/kg, po QD for 21 days measured on day 12; format: organism-based; parameters: dose 25 mg/kg, route oral; conditions: in vivo, 504 h
# [35] = Apparent oral clearance in nude BALB/c mouse at 10 mg/kg, iv; format: ADME, organism-based; parameters: dose 10 mg/kg; conditions: in vivo
# Mus musculus [36] = assay: Toxicity in nude BALB/c mouse xenografted with human Ramos cells assessed as maximum body weight loss at 50 mg/kg, po QD for 21 days measured on day 12; format: organism-based; parameters: dose 50 mg/kg, route oral; conditions: in vivo, 504 h
# Mus musculus [37] = assay: Toxicity in nude BALB/c mouse xenografted with human MV4-11 cells assessed as mortality at 50 mg/kg, po QD for 21 days measured on day 21; format: organism-based; parameters: dose 50 mg/kg, route oral; conditions: in vivo, 504 h
# [38] = target: Voltage-gated inwardly rectifying potassium channel KCNH2 (Homo sapiens, UniProt Q12809); assay: Displacement of [3H]-dofetilide from human ERG receptor at 10 uM
# HCT-116 [39] = assay: Antitumor activity against human HCT116 cells xenografted in nude BALB/c mouse assessed as tumor growth inhibition at 100 mg/kg, po qd for 21 days measured on day 18; format: functional; conditions: read-out: TGI
# Mus musculus [40] = assay: Toxicity in nude BALB/c mouse xenografted with human MV4-11 cells assessed as mortality at 25 mg/kg, po QD for 21 days measured on day 21; format: organism-based; parameters: dose 25 mg/kg, route oral; conditions: in vivo, 504 h
# [41] = Half life in rat liver microsomes; format: ADME, Microsome
# [42] = Apparent oral clearance in nude BALB/c mouse at 50 mg/kg, po; format: ADME, organism-based; parameters: dose 50 mg/kg, route oral; conditions: in vivo
# MV4-11 [43] = assay: Antitumor activity against human MV4-11 cells xenografted in nude BALB/c mouse assessed as tumor growth inhibition at 50 mg/kg, po qd for 21 days measured on day 21; format: functional; conditions: MV4-11, 504 h, read-out: TGI
# [44] = Terminal half life in nude BALB/c mouse at 50 mg/kg, po; format: ADME, organism-based; parameters: dose 50 mg/kg, route oral; conditions: in vivo, read-out: beta t1/2 (converted)
# Mus musculus [45] = assay: Toxicity in nude BALB/c mouse xenografted with human HCT116 cells assessed as body weight loss at 200 mg/kg, po QD for 21 days measured on day 6; format: organism-based, HCT-116; parameters: dose 200 mg/kg, route oral; conditions: in vivo, 504 h
# [46] = Apparent oral clearance in Beagle dog at 10 mg/kg, po; format: ADME, organism-based, Canis lupus familiaris; parameters: dose 10 mg/kg, route oral; conditions: in vivo
# MV4-11 [47] = assay: Antitumor activity against human MV4-11 cells xenografted in nude BALB/c mouse assessed as tumor growth inhibition at 25 mg/kg, po qd for 21 days measured on day 21; format: functional; conditions: MV4-11, 504 h, read-out: TGI
# [48] = Terminal half life in Wistar rat at 10 mg/kg, po; format: ADME, organism-based; parameters: dose 10 mg/kg, route oral; conditions: in vivo, read-out: beta t1/2 (converted)
# Ramos [49] = assay: Antitumor activity against human Ramos cells xenografted in nude BALB/c mouse assessed as tumor growth inhibition at 50 mg/kg, po qd for 21 days measured on day 15; format: functional; conditions: read-out: TGI
# Matrix metalloproteinase-9 (Homo sapiens), sequence (P14780 whole entry): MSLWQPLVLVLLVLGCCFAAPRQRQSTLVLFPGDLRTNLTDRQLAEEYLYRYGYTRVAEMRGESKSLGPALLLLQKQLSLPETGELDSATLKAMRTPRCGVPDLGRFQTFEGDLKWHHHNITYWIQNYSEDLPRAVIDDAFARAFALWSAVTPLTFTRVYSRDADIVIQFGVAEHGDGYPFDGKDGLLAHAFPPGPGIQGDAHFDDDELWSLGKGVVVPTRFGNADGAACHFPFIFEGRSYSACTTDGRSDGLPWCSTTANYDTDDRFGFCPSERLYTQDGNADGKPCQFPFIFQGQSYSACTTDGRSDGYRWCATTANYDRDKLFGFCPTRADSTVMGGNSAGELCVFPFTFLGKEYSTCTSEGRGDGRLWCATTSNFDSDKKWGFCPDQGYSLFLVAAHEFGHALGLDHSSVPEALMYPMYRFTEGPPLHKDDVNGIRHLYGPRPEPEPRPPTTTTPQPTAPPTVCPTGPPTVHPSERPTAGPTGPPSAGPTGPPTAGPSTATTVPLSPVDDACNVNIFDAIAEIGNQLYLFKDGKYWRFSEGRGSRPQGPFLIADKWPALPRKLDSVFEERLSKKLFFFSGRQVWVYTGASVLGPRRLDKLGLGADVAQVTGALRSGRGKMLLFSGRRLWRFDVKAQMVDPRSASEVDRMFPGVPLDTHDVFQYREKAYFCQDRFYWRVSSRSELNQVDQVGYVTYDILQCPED
# Voltage-gated inwardly rectifying potassium channel KCNH2, sequence (Q12809 whole entry): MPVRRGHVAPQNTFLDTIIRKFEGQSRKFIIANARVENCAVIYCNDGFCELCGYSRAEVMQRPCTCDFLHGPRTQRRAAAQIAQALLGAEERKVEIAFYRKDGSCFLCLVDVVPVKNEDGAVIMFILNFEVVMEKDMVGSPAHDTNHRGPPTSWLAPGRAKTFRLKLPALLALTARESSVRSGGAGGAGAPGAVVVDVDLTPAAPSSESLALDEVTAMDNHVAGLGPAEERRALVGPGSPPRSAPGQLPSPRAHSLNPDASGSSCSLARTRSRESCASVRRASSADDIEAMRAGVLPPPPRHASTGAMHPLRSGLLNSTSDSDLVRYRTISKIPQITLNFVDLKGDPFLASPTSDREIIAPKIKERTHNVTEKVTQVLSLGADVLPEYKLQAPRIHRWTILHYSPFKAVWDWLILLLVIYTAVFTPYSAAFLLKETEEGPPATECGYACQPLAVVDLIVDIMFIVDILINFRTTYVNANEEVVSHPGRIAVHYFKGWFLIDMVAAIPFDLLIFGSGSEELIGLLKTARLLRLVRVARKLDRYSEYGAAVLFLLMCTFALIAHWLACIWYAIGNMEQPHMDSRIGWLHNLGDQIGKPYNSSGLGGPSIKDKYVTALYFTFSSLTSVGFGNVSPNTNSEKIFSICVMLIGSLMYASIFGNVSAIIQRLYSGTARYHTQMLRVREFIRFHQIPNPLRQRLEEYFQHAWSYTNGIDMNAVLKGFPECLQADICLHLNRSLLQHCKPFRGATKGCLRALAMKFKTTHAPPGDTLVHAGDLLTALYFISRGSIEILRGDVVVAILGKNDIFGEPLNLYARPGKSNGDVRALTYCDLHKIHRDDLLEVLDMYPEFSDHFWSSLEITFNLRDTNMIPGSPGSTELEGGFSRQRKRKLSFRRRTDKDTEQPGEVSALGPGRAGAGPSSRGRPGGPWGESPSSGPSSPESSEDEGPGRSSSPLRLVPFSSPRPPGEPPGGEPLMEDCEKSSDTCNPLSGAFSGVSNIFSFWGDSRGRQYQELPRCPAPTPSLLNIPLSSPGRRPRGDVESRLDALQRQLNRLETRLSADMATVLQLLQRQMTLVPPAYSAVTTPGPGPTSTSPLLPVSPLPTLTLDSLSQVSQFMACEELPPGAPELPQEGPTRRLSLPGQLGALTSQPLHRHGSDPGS
smiles,measurement,setting,value
CCCCCCc1nc2cc(/C=C/C(=O)NO)ccc2n1CCN(C)C,Activity,Mus musculus [1],Toxic
CCCCc1nc2cc(/C=C/C(=O)NO)ccc2n1CCN(CC)CC.Cl.Cl,Time,[2],10 h
same,Vd,[3],1.66 L/kg
same,IC50,Ramos [4],140 nM
same,Activity,Mus musculus [5],7.1%
same,Activity,Mus musculus [6],19.9%
same,Time,[7],7.1 h
same,Cmax,[8],6.1 µM
same,CL/F,[9],74.2 mL/min/kg
same,Activity,Mus musculus [10],14.6%
same,half-life,[11],> 1 h
same,inhibition in vivo at 100 mg/kg,HCT-116 [12],97%
same,Activity,Mus musculus [13],6.4%
same,Tmax,[14],0.75 h
same,fraction unbound at 1000 ng/mL,[15],0.165
same,AUC(0-inf),[16],1.15 µM·h
same,inhibition,[17],inactive
same,solubility,[18],> 100 mg/mL
same,fraction unbound at 1000 ng/mL,[19],0.082
same,half-life,[20],2.26 h
same,Vd,[21],3.46 L/kg
same,Cmax,[22],3.56 µM
same,Activity,Mus musculus [23],Non-toxic
same,AUC(0-inf),[24],2.52 µM·h
same,solubility,[25],> 50 mg/mL
same,half-life,[26],4.12 h
same,Activity,Mus musculus [27],7.7%
same,IC50,MV4-11 [28],100 nM
same,Activity,Mus musculus [29],Toxic
same,inhibition in vivo at 50 mg/kg,PC-3,66%
same,solubility,[30],> 50 mg/mL
same,CL/F,[31],24.2 mL/min/kg
same,Tmax,[32],0.17 h
same,Vd,[33],4.24 L/kg
same,Activity,Mus musculus [34],12%
same,CL/F,[35],153 mL/min/kg
same,Activity,Mus musculus [36],3.7%
same,Activity,Mus musculus [37],Non-toxic
same,inhibition (INH),[38],Not Active
same,inhibition in vivo at 100 mg/kg,HCT-116 [39],98%
same,Activity,Mus musculus [40],Non-toxic
same,half-life,[41],7.8 min
same,CL/F,[42],453 mL/min/kg
same,inhibition in vivo at 50 mg/kg,MV4-11 [43],114%
same,half-life,[44],2.44 h
same,Activity,Mus musculus [45],25.5%
same,CL/F,[46],38.2 mL/min/kg
same,inhibition in vivo at 25 mg/kg,MV4-11 [47],61%
same,half-life,[48],2.02 h
same,inhibition in vivo at 50 mg/kg,Ramos [49],75%
